Experimental findings from patent publication US9061994B1, “Materials and methods useful to induce vacuolization, cell death, or a combination thereof” (The University of Toledo, priority 2011, dated 2015) are described below.

The subject of data set [1] is U251 glioblastoma cells. The data set is described as follows: Cell morphology / vacuolization by phase-contrast microscopy. Type of data set: cell-based, human. To be noted: concentration not singled out ([…] and 10 μM or as in figure).
The test system of data set [2] is U251 glioblastoma cells. Briefly: Sulforhodamine B (SRB) growth inhibition assay. The data set is classed as cell-based, human. To be noted: U251; 48 h SRB; Table 1, Table 2 (FIG. 64), FIG. 63. The method, then:
Cells experiencing methuosis initially undergo extreme cytoplasmic vacuolization which can be readily assessed by phase contrast microscopy. As viability is compromised (usually between 24-48 h), the cells detach from the culture surface and lose membrane integrity. […] Although methuosis can occur in a broad spectrum of human tumor cell lines, SAR studies were carried out with U251 glioblastoma cells. Therefore, this cell line was used in the present evaluation.
Total protein in adherent cells was measured by the sulforhodamine B (SRB) colorimetric assay, following standard procedures for anticancer drug screening used by the U.S. National Cancer Institute. […] On the day after plating, four wells were assayed to establish a pre-drug (time-0) baseline. Test compounds were diluted as described above and added to the remaining wells. The medium and compounds were replenished after 24 hr. SRB assays were performed at a 48 h endpoint as described, using a SpectraMax Plus 384 plate reader (Molecular Devices, Sunnyvale, Calif.) to determine absorbance at 515 nm.
Cells were seeded in 96-well plates as described in the methods. After 24 h, each compound was added at the indicated concentrations and SRB assays were performed after an additional 48 h. Each point represents the mean±SD of values from four wells. The dotted line on each graph indicates the average absorbance of four wells sampled at time-0 (i.e., the time that the compounds were added).
The human U251 glioblastoma cell line was obtained from the DCT Tumor Repository (National Cancer Institute, Fredrick, Md.). […] All test compounds were dissolved in DMSO and serially diluted in DMSO so that the desired final drug concentrations could be achieved by making a 1/1000 dilution into the culture medium. One day after plating, four wells were assayed to establish a pre-drug (time-0) baseline. At the same time, fresh medium containing test compounds was added to the remaining wells. Control wells received DMSO alone. SRB assays were performed at a 48 h endpoint. To minimize the impact of potential variations in stability among the compounds, medium with test compound was replenished after the first 24 h.

Data set [3] has as its system U251 glioblastoma cells. The data set is described as follows: Classification by cellular phenotype induced in cultured cells. Type of data set: cell-based, human. The settings on record: FIG. 72.
Data set [4] relates to U251 glioblastoma cells. The data set is described as follows: Cell cycle analysis by flow cytometry (DNA histograms). The data set is classed as cell-based, human. To be noted: 24 h, 3 μM (FIGS. 69A-69B). (A flow cytometer gives signals particle by particle.)
Data set [5] can be described thus: Stability on storage in DMSO (1H NMR). The data set is classed as physicochemical. An excerpt:
Derivatives substituted with hydroxyl-functionality were synthesized based upon the results obtained in previous SAR studies for 2-substituted indole. Subtle chemical modifications at this position can alter activity, and are sensitive to both steric and electronic properties. […] Previously prepared intermediate ethyl 5-methoxyindole-2-carboxylate (302) was reduced by LAH to 425, which was then protected by acetylating the primary hydroxyl group (426). The acetyl group was then hydrolyzed during the alkaline conditions used to quench the acidic reagents generated during Vilsmeier's step that produce aldehyde 427. […] Alcohol 425 was oxidized to 5-methoxyindole-2-carboxaldehyde (428) by MnO2 in EtOAc heated to reflux. The aldehyde was subjected toWittig conditions using phosphonium ylide (Ph3CHCO2C2H5) to produce the α,β-unsaturated ester 429, which was reduced to 2-hydroxypropylindole 430 using excess LAH. The primary hydroxyl group was protected as the O-acetate (431) under conditions of excess acetic anhydride, TEA and CH3CN. […] As anticipated, the O-acetyl group was hydrolyzed under these conditions.
5-Methoxy-2-hydroxymethylindole-3-carboxaldehyde 427 (75 mg, 0.37 mmol), 4-acetylpyridine (118 mg, […]), and piperidine (82.6 mg, […]) were dissolved in methanol (1 mL) and heated to reflux. The reaction mixture was stirred for 45 min during which the solution became bright orange. The flask was then removed from heat and allowed to stir for 1 h. A precipitate formed which was collected, washed with ice-cold MeOH (5 mL) and dried in a vacuum desiccator for 24 h to yield an orange solid (28 mg, 24%). mp 229-230° C. TLC Rf 0.65 (6% MeOH/DCM), 0.21 (80% EtOAc/hexanes). […] 13C NMR (150 MHz, d6-DMSO) δ 188.2, 155.2, 150.6, 148.0, 145.0, 139.3, 131.0, 126.7, 121.4, 113.8, 113.0, 111.6, 108.3, 103.4, 55.57, 55.32. Elemental analysis calculated for C18H16N2O3.0.033 MeOH: C, 70.00; H, 5.26; N, 9.05. Found: C, 69.61; H, 5.09; N, 8.90. […] When stored in its isolated precipitate form, this compound is stable.

For data set [6], the system named is U251 glioblastoma cells. Briefly: Effect of filipin, bafilomycin A1 or EHT 1864 on MIPP-induced vacuoles. To be noted: 10 μM MIPP with 12 μg/ml filipin, 0.1 μM bafilomycin A1 or 25 μM EHT 1864. Type of data set: cell-based, human. How it is done:
To inhibit clathrin-independent endocytosis, U251 cells were washed twice with serum-free DMEM, then pretreated for 30 min with DMEM+0.5% BSA in the presence or absence of 12 μg/ml filipin. Following the pretreatment, MIPP was added to the dishes at a final concentration of 10 μM and phase-contrast images were acquired 100 min later. To inhibit the vacuolar-type H^+ ATPase, U251 cells were pretreated for 1 h with 0.1 μM bafilomycin A1 or an equivalent volume of DMSO. At the end of the hour, 10 μM MIPP, or an equivalent volume of DMSO, was added without a medium change. Phase-contrast images of the cells were acquired 1 h after the addition of MIPP. […] The percentage of vacuolated cells in the population was determined by scoring at least 100 cells in multiple phase-contrast photomicrographs for each condition. Cells containing three or more phase-lucent vacuoles with diameters ≧0.5 μm or >10 smaller vacuoles (0.1-0.5 μm) were scored as positive. For comparison, the effect of EHT 1864 on Ras-induced vacuolization was also determined. […] After 24 h, phase-contrast images were taken and the number of vacuolated cells was scored as described above.

For a further data set, the target named is T1, porcine tubulin (Sus scrofa, UniProt P02550+P02554).
T1 construct: purchased Cytoskeleton, Inc. BK011P
T1 sequence (P02550 whole entry): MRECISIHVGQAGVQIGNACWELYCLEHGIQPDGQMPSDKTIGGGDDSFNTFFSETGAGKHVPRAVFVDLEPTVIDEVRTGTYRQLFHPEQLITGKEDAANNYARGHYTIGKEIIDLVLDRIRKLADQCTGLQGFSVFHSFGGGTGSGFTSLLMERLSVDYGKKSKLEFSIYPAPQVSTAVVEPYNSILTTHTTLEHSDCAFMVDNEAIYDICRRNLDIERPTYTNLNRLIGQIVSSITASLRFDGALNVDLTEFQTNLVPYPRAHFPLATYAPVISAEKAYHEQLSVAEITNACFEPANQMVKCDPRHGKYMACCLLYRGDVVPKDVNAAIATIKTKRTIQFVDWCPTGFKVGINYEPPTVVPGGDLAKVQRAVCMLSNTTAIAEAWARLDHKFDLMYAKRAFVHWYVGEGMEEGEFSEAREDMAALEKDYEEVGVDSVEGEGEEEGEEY
T1 sequence (P02554 whole entry): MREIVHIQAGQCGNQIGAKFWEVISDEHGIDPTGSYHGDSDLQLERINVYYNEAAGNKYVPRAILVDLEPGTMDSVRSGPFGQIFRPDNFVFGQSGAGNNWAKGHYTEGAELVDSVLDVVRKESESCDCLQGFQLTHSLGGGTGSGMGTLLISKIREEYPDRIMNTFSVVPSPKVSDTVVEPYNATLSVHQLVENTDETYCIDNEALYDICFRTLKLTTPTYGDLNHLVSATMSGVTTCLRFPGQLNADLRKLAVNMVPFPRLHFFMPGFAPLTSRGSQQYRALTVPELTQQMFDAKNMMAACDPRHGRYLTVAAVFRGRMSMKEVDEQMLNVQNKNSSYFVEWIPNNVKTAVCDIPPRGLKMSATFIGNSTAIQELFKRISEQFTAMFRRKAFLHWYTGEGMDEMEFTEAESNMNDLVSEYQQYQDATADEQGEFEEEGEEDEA
The data set is described as follows: Cell-free fluorescence-based tubulin polymerization assay. The data set is classed as biochemical. To be noted: final concentration 3 μM (FIG. 61).

The nature of data set [7]: Stability during workup, manipulation or storage. The data set is classed as physicochemical. The settings on record: among ester series 120, 125, 310, 309. How it is done: Expanding previous SAR studies of 2-indolyl alkyl substitutions, additional functionalized probes were prepared as depicted in Schemes 4-7. […] Excellent regioselectivity was achieved by the di-lithio species derived from 418 and sec-butyllithium in THF at −40° C. Cyclization and deprotection occurred in a one-pot fashion with excess TFA affording 5-methoxy-2-trifluoromethylindole (203). Synthesis of aldehyde 204 and condensation to the final trifluoromethyl target 124 were accomplished by standard methods. Alkyl carboxylates (301-304) were synthesized from commercially available acid 300 by Fisher esterification conditions using their corresponding alcohols (Scheme 4E, FIG. 78). Formylation reactions to yield aldehydes 305-308, followed by Claisen-Schmidt condensation to provide 120, 125, 310, 309, were conducted as previously described. […] Without wishing to be bound by theory, it is believed this is owing to its better leaving group among this series.

Regarding “3-(2-hydroxypropyl-5-methoxy-indole-3-yl)-1-(4-pyridinyl)-2-propen-1-one [402q]”, in the data set on U251 glioblastoma cells [1], the “cell morphology / vacuolization” value is given as “extensive accumulation of large cytoplasmic vacuoles, with loss of viable adherent cells at concentrations >2.5 μM”. In addition, the “growth inhibitory (GI) activity, in words” value with U251 glioblastoma cells [2] was “GI values in the low micromolar range”. Moreover, in the data set with U251 glioblastoma cells [3], the “class of cellular phenotype” value is “Class 2”. For `COc1ccc2[nH]c(C(=O)[O-])c(/C=C/C(=O)c3ccncc3)c2c1.[Na+]` [402o, sodium trans-3-(5-methoxyindol-2-carboxylate-3-yl)-1-(4-pyridinyl)-2-propen-1-one], in the data set on U251 glioblastoma cells [2], the “growth inhibitory (GI) activity, in words” value is listed as “either markedly attenuated or completely eliminated”. Also, the “cell cycle distribution (G2/M, sub-G1/G0)” value in the data set on U251 glioblastoma cells [4] is on record as “no detectable effect on cell cycle distribution”. In the case of `COc1ccc2[nH]c(CO)c(C=CC(=O)c3ccncc3)c2c1` [402p, 3-(2-hydroxymethyl-5-methoxy-1H-indole-3-yl)-1-(4-pyridinyl)-2-propen-1-one], in data set [5] (storage in DMSO), the “stability in DMSO, in words” value is reported as “unstable when stored at rt in DMSO for 48 h”. The same compound displayed a degraded in data set [5] (stored in d6-DMSO, after 48 h, 1H NMR) of about 50%. Also, the “stability as isolated precipitate” value in data set [5] (stored in its isolated precipitate form) is “stable”. For the compound `CO/C1=C\C(C)=C\[C@@H](C)[C@@H](O)[C@@H](C)C/C(C)=C/C=C/[C@H](OC)[C@@H]([C@@H](C)[C@@H](O)[C@H](C)[C@@]2(O)C[C@@H](O)[C@H](C)[C@@H](C(C)C)O2)OC1=O` [Baf-A, bafilomycin A1], the “effect on induction of vacuoles by MIPP” value with U251 glioblastoma cells [6] is given as “completely abrogated the ability of the cells to generate vacuoles when they were exposed to MIPP”. For the compound `O=c1cc(CN2CCOCC2)occ1OCCCCCSc1ccnc2cc(C(F)(F)F)ccc12` [EHT 1864], the “effect on induction of vacuoles by MIPP” value with U251 glioblastoma cells [6] was “no detectable effect on vacuole formation”. Take `COc1ccc2[nH]c(C)c(/C=C/C(=O)c3ccncc3)c2c1` [MOMIPP, trans-3-(5-methoxy-2-methyl-1H-indol-3-yl)-1-(4-pyridinyl)-2-propen-1-one]: at porcine tubulin, the “inhibition of tubulin polymerization” value is recorded as “superimposable with the DMSO control”. Regarding `CN[C@H]1CCc2cc(OC)c(OC)c(OC)c2-c2ccc(OC)c(=O)cc21` [colcemid, reference compound], in the data set on U251 glioblastoma cells [4], the “cell cycle distribution (G2/M, sub-G1/G0)” value is recorded as “significantly decreased compared to the DMSO control (p≦0.05)”.

As for `COc1ccc2[nH]c(C(F)(F)F)c(/C=C/C(=O)c3ccncc3)c2c1` [compound 124, trans-3-(5-methoxyindol-2-trifluoromethyl-3-yl)-1-(4-pyridinyl)-2-propen-1-one], the “inhibition of tubulin polymerization” value at porcine tubulin was “partially inhibited tubulin polymerization”.

Take `CCOC(=O)c1[nH]c2ccc(OC)cc2c1/C=C/C(=O)c1ccncc1` [compound 125, ethyl trans-3-(5-methoxyindol-2-carboxylate-3-yl)-1-(4-pyridinyl)-2-propen-1-one]: at porcine tubulin, the “inhibition of tubulin polymerization” value was “partially inhibited tubulin polymerization”. In the case of `COc1ccc2[nH]c(C(=O)OC(C)C)c(/C=C/C(=O)c3ccncc3)c2c1` [compound 309, isopropyl trans-3-(5-methoxyindol-2-carboxylate-3-yl)-1-(4-pyridinyl)-2-propen-1-one], the sensitivity to hydrolysis entry in data set [7] was “most sensitive to hydrolysis during workup and subsequent manipulation or storage”. For `CCCCC[C@@H](O)[C@H]1C(=O)O[C@H](C)[C@@H](O)/C=C/C=C/C=C/C=C/C=C(\C)[C@@H](O)C[C@H](O)C[C@H](O)C[C@H](O)C[C@H](O)C[C@H](O)C[C@@H]1O` [filipin], the “effect on induction of vacuoles by MIPP” value in the data set with U251 glioblastoma cells [6] is recorded as “failed to show the typical morphological response to MIPP”.
